Source: publication PMC8064871 (International Journal of Biological Macromolecules, 2021)
Structures can show the parent of a compound that is named as a salt.

Legend:
SARS-CoV-2 3CL^pro [1] = target: T1, SARS-CoV-2 3CL^pro (Severe acute respiratory syndrome coronavirus 2, UniProt P0DTD1); details: incubation 5-40 min at 37 °C; kobs = (k inact·[I])/(K I + [I])
SARS-CoV-2 3CL^pro [2] = target: T1, SARS-CoV-2 3CL^pro; experiment: Intact protein molecular weight analysis by mass spectrometry; type: binding; details: 8.4 μM protease, 90 μM compound, 30 min at 37 °C
SARS-CoV-2 3CL^pro [3] = target: T1, SARS-CoV-2 3CL^pro; experiment: biochemical; details: IC50 against SARS-CoV-2 3CL^pro, incubation 3 min
SARS-CoV-2 3CL^pro [4] = target: T1, SARS-CoV-2 3CL^pro; experiment: Enzymatic inhibition assay of SARS-CoV-2 3CLpro by FRET; type: biochemical; details: for inhibitory activity against SARS-CoV-2 3CL^pro (in words): concentrations 0, 1, 10, 100 μM

CC1=CC(=O)c2ccccc2C1=O [Entry 1, 2-Methyl-1,4-naphthoquinone (vitamin K3), reference compound]
K I (inhibition constant) (SARS-CoV-2 3CL^pro [1]): 112200 nM | proteins bound with one compound (SARS-CoV-2 3CL^pro [2]): 55% | proteins bound with two compounds (SARS-CoV-2 3CL^pro [2]): about 15% | proteins covalently bound (total) (SARS-CoV-2 3CL^pro [2]): about 70%

O=C1C=CC(=O)c2c(O)ccc(O)c21 [Entry 7, 5,8-Dihydroxy-1,4-naphthoquinone]
IC50 (SARS-CoV-2 3CL^pro [3]): 790 nM | K I (inhibition constant) (SARS-CoV-2 3CL^pro [1]): 3050 nM | IC50 (SARS-CoV-2 3CL^pro [4]): 490 ± 110 nM | times higher inhibitory activity than Vitamin K3 (SARS-CoV-2 3CL^pro [4]; ratio of IC50 values against SARS-CoV-2 3CL^pro): 9.8 times | proteins bound with one compound (SARS-CoV-2 3CL^pro [2]): 80% | proteins bound with two compounds (SARS-CoV-2 3CL^pro [2]): about 10% | proteins covalently bound (total) (SARS-CoV-2 3CL^pro [2]): about 90%

O=C1C=C(O)C(=O)c2ccccc21 [Entry 4, 2-Hydroxy-1,4-naphthoquinone]
IC50 (SARS-CoV-2 3CL^pro [4]): > 100000 nM | inhibitory activity against SARS-CoV-2 3CL^pro (in words) (SARS-CoV-2 3CL^pro [4]): almost lose their inhibitory activities

O=C1C=C(Cl)C(=O)c2ccccc21 [Entry 3, 2-Chloro-1,4-naphthoquinone]
IC50 (SARS-CoV-2 3CL^pro [4]): 1920 ± 490 nM

O=C1C=CC(=O)c2c(O)cccc21 [Entry 6, 5-Hydroxy-1,4-naphthoquinone]
IC50 (SARS-CoV-2 3CL^pro [4]): 4110 ± 240 nM

CC1=C(C/C=C(\C)CCC[C@H](C)CCC[C@H](C)CCCC(C)C)C(=O)c2ccccc2C1=O [Vitamin K1, reference compound]
inhibitory activity against SARS-CoV-2 3CL^pro (in words) (SARS-CoV-2 3CL^pro [4]): no inhibition at the high and middle concentration

CC(=O)Oc1cc(C)c(OC(C)=O)c2ccccc12 [Vitamin K4, reference compound]
inhibitory activity against SARS-CoV-2 3CL^pro (in words) (SARS-CoV-2 3CL^pro [4]): lost its inhibitory activity

O=C1C=CC(=O)c2ccccc21 [Entry 2, 1,4-Naphthoquinone]
IC50 (SARS-CoV-2 3CL^pro [4]): 690 ± 130 nM

N=C(N)c1ccc2cc(OC(=O)c3ccc(N=C(N)N)cc3)ccc2c1 [Nafamostat Mesylate, reference compound]
remaining activity at 100 µM (SARS-CoV-2 3CL^pro [4]; read-out: residual activity of the protease): ~60%

NC1=C(Cl)C(=O)c2ccccc2C1=O [Entry 5, 2-Amino-3-chloro-1,4-naphthoquinone]
IC50 (SARS-CoV-2 3CL^pro [4]): > 100000 nM | inhibitory activity against SARS-CoV-2 3CL^pro (in words) (SARS-CoV-2 3CL^pro [4]): almost lose their inhibitory activities

O=NN(CCCl)C(=O)NC1CCCCC1 [Lomustine, reference compound]
IC50 (SARS-CoV-2 3CL^pro [4]): 5860 nM

COc1cc(C(=O)NS(=O)(=O)c2ccccc2C)ccc1Cc1cn(C)c2ccc(NC(=O)OC3CCCC3)cc12 [Zafirlukast, reference compound]
IC50 (SARS-CoV-2 3CL^pro [4]): 46700 nM

CC1=CC(=O)c2c(O)cccc2C1=O [Entry 8, 2-Methyl-5-hydroxy-1,4-naphthoquinone]
IC50 (SARS-CoV-2 3CL^pro [4]): 1320 ± 330 nM
